Data: paper PMC10746543, “Design principles for cyclin K molecular glue degraders” (Nature Chemical Biology, 2023)
Where “and” joins values, the source holds several entries; their conditions need not be identical. Equal entries are not always repeated. Where two headings read alike, the source gives them in different places. Values belong to the molecule of their own block, whether it stands above or below them.

How the values were obtained:
[1] = molecular target: T1, CDK12–cyclin K and DDB1 (Homo sapiens, UniProt Q16531+Q9NYV4, K965R); experiment: TR-FRET ternary complex formation assay (compound titration); type: binding; details: for TR-FRET signal at compound concentration: replicate titrations
T1 construct: His6–CDK12 (a.a. 713–1,052); full-length or beta-propeller B domain deletion (ΔBPB: a.a. 396–705 deleted) constructs of His6–DDB1ΔBPB, StrepII–Avi–DDB1, or His6–Spy–DDB1; made in house; host or cells: Trichoplusia ni High Five insect cells (baculovirus)
Description: A 70 μs delay was employed to reduce background fluorescence. The TR-FRET signal was obtained through calculating the ratio of 520 nm to 490 nm fluorescence, and Prism 9 (GraphPad) was used for further data analysis.

[2] = system: HEK293T cells; experiment: Drug sensitivity assay (CellTiter-Glo viability) with or without MLN4924 pretreatment; type: cell-based, human; details: Supplementary Table 2; for EC50: Homo sapiens, HEK-293T, HEK293T viability, 72 h, compound alone, read-out: Cellular assays EC50; for Toxicity rescue: MLN4924-mediated cytotoxicity rescue, 10 µM used where n.d.
Method: HEK293T–Cas9 cells were resuspended at 0.15 × 10^6 ml^−1 treated with DMSO or 100 nM MLN4924 and plated on 384-well plates. After 2 h, the indicated drugs were dispensed with a D300 digital dispenser (Tecan). After 3 days of drug exposure, cell viability was assessed using the CellTiter-Glo luminescent assay (Promega, G7572) on an CLARIOstar Plus, MARS 3.4 (BMG LabTech). Cell viabilities were calculated relative to DMSO controls.

[3] = Supplementary Table 2, read-out: TR-FRET EC50 TR-FRET
[4] = compound concentration 79.2001 nM
[5] = compound concentration 158.4 nM
[6] = compound concentration 309.6 nM
[7] = compound concentration 626.401 nM
[8] = compound concentration 1252.8 nM
[9] = compound concentration 9936.01 nM
[10] = compound concentration 20016 nM
[11] = in vitro complex formation, 50 nM CDK12–cyclin K, 100 nM DDB1, text and figures, read-out: TR-FRET EC50

T1 sequence (Q9NYV4 713-1052 K965R): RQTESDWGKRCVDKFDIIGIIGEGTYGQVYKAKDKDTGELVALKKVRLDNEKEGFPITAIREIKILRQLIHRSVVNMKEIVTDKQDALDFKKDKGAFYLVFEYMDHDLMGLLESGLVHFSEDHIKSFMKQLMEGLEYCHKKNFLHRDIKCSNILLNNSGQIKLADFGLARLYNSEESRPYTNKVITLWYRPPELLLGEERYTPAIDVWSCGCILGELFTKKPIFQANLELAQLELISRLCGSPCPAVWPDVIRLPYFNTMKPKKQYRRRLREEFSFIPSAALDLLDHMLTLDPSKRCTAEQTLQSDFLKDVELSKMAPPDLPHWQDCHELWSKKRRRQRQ
T1 sequence (O75909 1-267 partner): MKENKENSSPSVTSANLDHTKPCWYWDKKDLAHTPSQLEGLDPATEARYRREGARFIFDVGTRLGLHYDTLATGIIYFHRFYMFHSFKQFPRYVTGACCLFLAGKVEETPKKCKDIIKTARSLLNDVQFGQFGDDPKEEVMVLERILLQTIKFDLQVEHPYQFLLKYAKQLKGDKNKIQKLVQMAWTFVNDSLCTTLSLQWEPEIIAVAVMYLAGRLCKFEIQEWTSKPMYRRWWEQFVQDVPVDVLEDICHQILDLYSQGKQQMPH
T1 sequence (Q16531 whole entry): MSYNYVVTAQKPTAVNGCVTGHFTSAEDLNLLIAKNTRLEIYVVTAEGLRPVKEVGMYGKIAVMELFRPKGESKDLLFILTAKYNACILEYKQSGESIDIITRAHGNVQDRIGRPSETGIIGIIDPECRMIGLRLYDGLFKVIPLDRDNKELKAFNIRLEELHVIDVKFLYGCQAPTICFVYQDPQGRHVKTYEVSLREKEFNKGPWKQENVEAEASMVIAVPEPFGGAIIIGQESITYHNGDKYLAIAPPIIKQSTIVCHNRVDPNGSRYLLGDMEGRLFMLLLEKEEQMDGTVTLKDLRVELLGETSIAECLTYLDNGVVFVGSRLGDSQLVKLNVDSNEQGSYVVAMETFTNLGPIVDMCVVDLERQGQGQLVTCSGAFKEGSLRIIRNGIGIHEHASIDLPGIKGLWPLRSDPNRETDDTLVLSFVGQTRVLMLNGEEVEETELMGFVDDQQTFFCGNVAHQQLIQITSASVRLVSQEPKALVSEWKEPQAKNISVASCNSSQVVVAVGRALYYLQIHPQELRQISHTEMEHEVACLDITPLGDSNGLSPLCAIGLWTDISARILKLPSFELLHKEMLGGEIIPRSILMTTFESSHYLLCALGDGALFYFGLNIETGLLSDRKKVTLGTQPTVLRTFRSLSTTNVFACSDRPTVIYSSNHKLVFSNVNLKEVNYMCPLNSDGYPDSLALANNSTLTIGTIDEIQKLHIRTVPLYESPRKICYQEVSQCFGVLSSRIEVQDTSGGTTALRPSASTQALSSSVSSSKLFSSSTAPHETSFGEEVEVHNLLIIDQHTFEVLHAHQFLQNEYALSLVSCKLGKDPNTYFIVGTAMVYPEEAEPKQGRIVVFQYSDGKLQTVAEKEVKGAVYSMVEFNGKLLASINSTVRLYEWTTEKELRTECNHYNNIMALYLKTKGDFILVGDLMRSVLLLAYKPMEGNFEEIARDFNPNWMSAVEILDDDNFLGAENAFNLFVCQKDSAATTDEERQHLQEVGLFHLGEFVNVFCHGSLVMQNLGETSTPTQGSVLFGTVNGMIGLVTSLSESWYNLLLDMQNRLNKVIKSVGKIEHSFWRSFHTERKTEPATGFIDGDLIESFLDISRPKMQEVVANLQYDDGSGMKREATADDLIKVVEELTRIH

TR-FRET signal at compound concentration 4.68 nM ([1]; compound concentration 4.68 nM, raw replicate titration data): 0.1981 and 0.2221
TR-FRET signal at compound concentration 21.6 nM ([1]; compound concentration 21.6 nM, raw replicate titration data): 0.2108 and 0.2312
TR-FRET signal at compound concentration 36 nM ([1]; compound concentration 36 nM, raw replicate titration data): 0.221 and 0.2484
TR-FRET signal at compound concentration 79.2001 nM ([1]; compound concentration 79.2001 nM, raw replicate titration data): 0.2309 and 0.2483
TR-FRET signal at compound concentration 158.4 nM ([1]; compound concentration 158.4 nM, raw replicate titration data): 0.2488 and 0.2752
TR-FRET signal at compound concentration 309.6 nM ([1]; compound concentration 309.6 nM, raw replicate titration data): 0.2871 and 0.3205
TR-FRET signal at compound concentration 626.401 nM ([1]; compound concentration 626.401 nM, raw replicate titration data): 0.3642 and 0.3972
TR-FRET signal at compound concentration 1252.8 nM ([1]; compound concentration 1252.8 nM, raw replicate titration data): 0.4852 and 0.5291
TR-FRET signal at compound concentration 2448 nM ([1]; compound concentration 2448 nM, raw replicate titration data): 0.6251 and 0.6926
TR-FRET signal at compound concentration 9936.01 nM ([1]; compound concentration 9936.01 nM, raw replicate titration data): 0.9055 and 1.021
TR-FRET signal at compound concentration 20016 nM ([1]; compound concentration 20016 nM, raw replicate titration data): 0.9207 and 1.03
EC50 [1, 11]: 2110 ± 252 nM
SMILES: Cn1cc(-n2cnc3c(NCc4cc5ccccc5[nH]4)nc(N4CCOCC4)nc32)cn1 [DS56]

EC50 [1, 3]: ~2200 nM
TR-FRET signal ([1]; compound concentration 4.68 nM): 0.2045 and 0.2293
TR-FRET signal ([1]; compound concentration 21.6 nM): 0.2001 and 0.225
TR-FRET signal ([1]; compound concentration 36 nM): 0.2055 and 0.2312
TR-FRET signal [1, 4]: 0.2131 and 0.2461
TR-FRET signal [1, 5]: 0.2289 and 0.2537
TR-FRET signal [1, 6]: 0.2472 and 0.27
TR-FRET signal [1, 7]: 0.294 and 0.3255
TR-FRET signal [1, 8]: 0.3562 and 0.4045
TR-FRET signal ([1]; compound concentration 2448 nM): 0.4507 and 0.5009
TR-FRET signal [1, 9]: 0.6036 and 0.6674
TR-FRET signal [1, 10]: 0.6334 and 0.6963
EC50 [1, 11]: 2200 ± 326 nM
SMILES: Cn1cc(-n2cnc3c(NCc4ccc(OCCO)cc4)nc(N4CCOCC4)nc32)cn1 [DS62]
DDB1–CDK12 complex formation, result in words ([1]; in vitro TR-FRET): incompatible with the DDB1–CDK12 interface
EC50 [2]: > 10000 nM
Toxicity rescue [2]: 0%

Further lines, the molecule ahead of its results:

SMILES: CC[C@H](CO)Nc1nc(NCCCCn2c(=O)oc3ccccc32)c2ncn(C(C)C)c2n1 [DS46]
EC50 [1, 3]: 627 nM
TR-FRET signal at compound concentration ([1]; compound concentration 4.68 nM): 0.1284 and 0.1304
TR-FRET signal at compound concentration ([1]; compound concentration 21.6 nM): 0.1505 and 0.151
TR-FRET signal at compound concentration ([1]; compound concentration 36 nM): 0.1775 and 0.1803
TR-FRET signal at compound concentration [1, 4]: 0.2245 and 0.2264
TR-FRET signal at compound concentration [1, 5]: 0.2818 and 0.3032
TR-FRET signal at compound concentration [1, 6]: 0.3899 and 0.4001
TR-FRET signal at compound concentration [1, 7]: 0.5107 and 0.5141
TR-FRET signal at compound concentration [1, 8]: 0.639 and 0.6296
TR-FRET signal at compound concentration ([1]; compound concentration 2448 nM): 0.7343 and 0.7319
TR-FRET signal at compound concentration [1, 9]: 0.8755 and 0.8533
TR-FRET signal at compound concentration [1, 10]: 0.861 and 0.8686
EC50 [2]: > 10000 nM
Toxicity rescue [2]: 0%

SMILES: Cn1cc(-n2cnc3c(NCc4nc5ccccc5[nH]4)nc(N4CCOCC4)nc32)cn1 [DS55]
EC50 [1, 3]: 35.6 nM
TR-FRET signal ([1]; compound concentration 0.468 nM): 0.2624 and 0.2805
TR-FRET signal at compound concentration 0.468 nM ([1]; compound concentration 0.468 nM, raw replicate titration data): 0.2624 and 0.2805
TR-FRET signal ([1]; compound concentration 2.16 nM): 0.2884 and 0.3105
TR-FRET signal at compound concentration 2.16 nM ([1]; compound concentration 2.16 nM, raw replicate titration data): 0.2884 and 0.3105
TR-FRET signal ([1]; compound concentration 3.6 nM): 0.3317 and 0.3563
TR-FRET signal at compound concentration 3.6 nM ([1]; compound concentration 3.6 nM, raw replicate titration data): 0.3317 and 0.3563
TR-FRET signal ([1]; compound concentration 7.92001 nM): 0.4199 and 0.4425
TR-FRET signal at compound concentration 7.92001 nM ([1]; compound concentration 7.92001 nM, raw replicate titration data): 0.4199 and 0.4425
TR-FRET signal ([1]; compound concentration 15.84 nM): 0.5444 and 0.5762
TR-FRET signal at compound concentration 15.84 nM ([1]; compound concentration 15.84 nM, raw replicate titration data): 0.5444 and 0.5762
TR-FRET signal ([1]; compound concentration 30.96 nM): 0.7696 and 0.7908
TR-FRET signal at compound concentration 30.96 nM ([1]; compound concentration 30.96 nM, raw replicate titration data): 0.7696 and 0.7908
TR-FRET signal ([1]; compound concentration 62.6401 nM): 1.019 and 1.061
TR-FRET signal at compound concentration 62.6401 nM ([1]; compound concentration 62.6401 nM, raw replicate titration data): 1.019 and 1.061
TR-FRET signal ([1]; compound concentration 125.28 nM): 1.199 and 1.278
TR-FRET signal at compound concentration 125.28 nM ([1]; compound concentration 125.28 nM, raw replicate titration data): 1.199 and 1.278
TR-FRET signal ([1]; compound concentration 244.8 nM): 1.2725 and 1.386
TR-FRET signal at compound concentration 244.8 nM ([1]; compound concentration 244.8 nM, raw replicate titration data): 1.2725 and 1.386
TR-FRET signal ([1]; compound concentration 993.601 nM): 1.352 and 1.424
TR-FRET signal at compound concentration 993.601 nM ([1]; compound concentration 993.601 nM, raw replicate titration data): 1.352 and 1.424
TR-FRET signal ([1]; compound concentration 2001.6 nM): 1.301 and 1.386
TR-FRET signal at compound concentration 2001.6 nM ([1]; compound concentration 2001.6 nM, raw replicate titration data): 1.301 and 1.386
EC50 [1, 11]: 36 ± 2 nM
EC50 [2]: 1030 nM
Toxicity rescue [2]: 336%

SMILES: CC[C@H](CO)Nc1nc(NCc2ccccc2)c2ncn(C(C)C)c2n1 [Roscovitine]
Toxicity rescue [2]: 0%
